{"source": "patent US20020137929A1", "about": "“1 - (3-heterocyclylphenyl) isothiourea, -isourea, -guanidine and -amidine herbicidal agents” (Intellectual Property Department, BASF Aktiengesellschaft, priority 1998, published 2002)", "key": {"[1]": {"system": "ABUTH (Velvetleaf)", "test": "Postemergence herbicidal evaluation", "type": "in vivo, Abutilon theophrasti", "details": "postemergence", "how_it_was_run": "(§1)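 ~2-wk seedlings; postemergence spray, 40 psi; vehicle 1:1 acetone:water + 0.5% Tween 20; rate ≈0.0156–0.500 kg/ha; greenhouse hold; scored 4–5 wk after treatment, 0–9 scale vs control; repeat tests averaged.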"}, "[2]": {"system": "TRZAWR (Wheat, Winter, cv Riband)", "test": "Postemergence herbicidal evaluation", "type": "in vivo, Triticum aestivum", "details": "postemergence", "how_it_was_run": "as §1"}, "[3]": {"system": "AMBEL (Ragweed, Common)", "test": "Postemergence herbicidal evaluation", "type": "in vivo, Ambrosia artemisifolia", "details": "postemergence", "how_it_was_run": "as §1"}, "[4]": {"system": "SETVI (Foxtail, Green)", "test": "Postemergence herbicidal evaluation", "type": "in vivo, Setaria viridis", "details": "postemergence", "how_it_was_run": "as §1"}, "[5]": {"system": "GLXMAW (Soybean, Williams)", "test": "Postemergence herbicidal evaluation", "type": "in vivo, Glycine max, (L.) Merr. cv Williams", "details": "postemergence", "how_it_was_run": "as §1"}, "[6]": {"system": "ECHCG (Barnyardgrass)", "test": "Postemergence herbicidal evaluation", "type": "in vivo, Echinochloa crus-galli", "details": "postemergence", "how_it_was_run": "as §1"}, "[7]": {"system": "ECHCG (Barnyardgrass)", "test": "Preemergence herbicidal evaluation", "type": "in vivo, Echinochloa crus-galli", "details": "rated 4-5 weeks after treatment", "how_it_was_run": "(§2)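 Preemergence soil application of compound, sprayed in aqueous acetone at rates equivalent to about 0.0156 to 0.500 kg per hectare onto freshly sown cups. Plant response was judged by eye on a 0-9 scale four to five weeks later.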"}, "[8]": {"system": "IPOHE (Morningglory, Ivyleaf)", "test": "Preemergence herbicidal evaluation", "type": "in vivo, Ipomoea hederacea", "details": "rated 4-5 weeks after treatment", "how_it_was_run": "as §2"}, "[9]": {"system": "IPOHE (Morningglory, Ivyleaf)", "test": "Postemergence herbicidal evaluation", "type": "in vivo, Ipomoea hederacea", "details": "postemergence", "how_it_was_run": "as §1"}, "[10]": {"system": "GALAP (Galium)", "test": "Preemergence herbicidal evaluation", "type": "in vivo, Galium aparine", "details": "rated 4-5 weeks after treatment", "how_it_was_run": "as §2"}, "[11]": {"system": "ZEAMX (Corn, Field)", "test": "Preemergence herbicidal evaluation", "type": "in vivo, Zea mays", "details": "rated 4-5 weeks after treatment", "how_it_was_run": "as §2"}, "[12]": {"system": "CHEAL (Lambsquarters, Common)", "test": "Preemergence herbicidal evaluation", "type": "in vivo, Chenopodium album", "details": "rated 4-5 weeks after treatment", "how_it_was_run": "as §2"}, "[13]": {"system": "CASOB (Sicklepod)", "test": "Preemergence herbicidal evaluation", "type": "in vivo, Cassia obtusifolia", "details": "rated 4-5 weeks after treatment", "how_it_was_run": "as §2"}}, "data": [{"smiles": "CCOC(=O)CN1C(=O)C(Cl)SC1=Nc1cc(-n2c(=O)cc(C(F)(F)F)n(C)c2=O)c(F)cc1Cl", "note": "(stereo not shown) [Compound 126, Ethyl 5-chloro-2-{{2-chloro-5-[3,6-dihydro-3-methyl-2,6-dioxo-4-(trifluoromethyl)-1(2H)-pyrimidinyl]-4-fluorophenyl}imino}-4-oxo-3-thiazolidineacetate]", "values": [{"measurement": "herbicidal rating ABUTH", "setting": "[1]; rate 0.0156 kg/ha", "value": 5.0}, {"measurement": "herbicidal rating ABUTH", "setting": "[1]; rate 0.0313 kg/ha", "value": 9.0}, {"measurement": "herbicidal rating ABUTH", "setting": "[1]; rate 0.0625 kg/ha", "value": 9.0}, {"measurement": "herbicidal rating ABUTH", "setting": "[1]; rate 0.1250 kg/ha", "value": 9.0}, {"measurement": "herbicidal rating TRZAWR", "setting": "[2]; rate 0.0156 kg/ha", "value": 2.0}, {"measurement": "herbicidal rating TRZAWR", "setting": "[2]; rate 0.0313 kg/ha", "value": 2.5}, {"measurement": "herbicidal rating TRZAWR", "setting": "[2]; rate 0.0625 kg/ha", "value": 3.0}, {"measurement": "herbicidal rating TRZAWR", "setting": "[2]; rate 0.1250 kg/ha", "value": 3.5}, {"measurement": "herbicidal rating AMBEL", "setting": "[3]; rate 0.0156 kg/ha", "value": 5.0}, {"measurement": "herbicidal rating AMBEL", "setting": "[3]; rate 0.0313 kg/ha", "value": 9.0}, {"measurement": "herbicidal rating AMBEL", "setting": "[3]; rate 0.0625 kg/ha", "value": 9.0}, {"measurement": "herbicidal rating AMBEL", "setting": "[3]; rate 0.1250 kg/ha", "value": 9.0}, {"measurement": "herbicidal rating SETVI", "setting": "[4]; rate 0.0156 kg/ha", "value": 0.0}, {"measurement": "herbicidal rating SETVI", "setting": "[4]; rate 0.0313 kg/ha", "value": 3.0}, {"measurement": "herbicidal rating SETVI", "setting": "[4]; rate 0.0625 kg/ha", "value": 3.0}, {"measurement": "herbicidal rating SETVI", "setting": "[4]; rate 0.1250 kg/ha", "value": 9.0}, {"measurement": "herbicidal rating GLXMAW", "setting": "[5]; rate 0.0156 kg/ha", "value": 5.0}, {"measurement": "herbicidal rating GLXMAW", "setting": "[5]; rate 0.0313 kg/ha", "value": 5.5}, {"measurement": "herbicidal rating GLXMAW", "setting": "[5]; rate 0.0625 kg/ha", "value": 6.0}, {"measurement": "herbicidal rating GLXMAW", "setting": "[5]; rate 0.1250 kg/ha", "value": 7.0}, {"measurement": "herbicidal rating ECHCG", "setting": "[6]; rate 0.0156 kg/ha", "value": 0.0}, {"measurement": "herbicidal rating ECHCG", "setting": "[6]; rate 0.0313 kg/ha", "value": 0.0}, {"measurement": "herbicidal rating ECHCG", "setting": "[6]; rate 0.0625 kg/ha", "value": 0.0}, {"measurement": "herbicidal rating ECHCG", "setting": "[6]; rate 0.1250 kg/ha", "value": 0.0}, {"measurement": "Preemergence herbicidal rating ECHCG", "setting": "[7]; rate 0.0625 kg/ha", "value": 0.0}, {"measurement": "Preemergence herbicidal rating ECHCG", "setting": "[7]; rate 0.1250 kg/ha", "value": 0.0}, {"measurement": "Preemergence herbicidal rating ECHCG", "setting": "[7]; rate 0.2500 kg/ha", "value": 0.0}, {"measurement": "Preemergence herbicidal rating ECHCG", "setting": "[7]; rate 0.5000 kg/ha", "value": 2.0}, {"measurement": "Preemergence herbicidal rating IPOHE", "setting": "[8]; rate 0.0625 kg/ha", "value": 0.0}, {"measurement": "Preemergence herbicidal rating IPOHE", "setting": "[8]; rate 0.1250 kg/ha", "value": 1.0}, {"measurement": "Preemergence herbicidal rating IPOHE", "setting": "[8]; rate 0.2500 kg/ha", "value": 1.0}, {"measurement": "Preemergence herbicidal rating IPOHE", "setting": "[8]; rate 0.5000 kg/ha", "value": 9.0}, {"measurement": "herbicidal rating IPOHE", "setting": "[9]; rate 0.0156 kg/ha", "value": 9.0}, {"measurement": "herbicidal rating IPOHE", "setting": "[9]; rate 0.0313 kg/ha", "value": 9.0}, {"measurement": "herbicidal rating IPOHE", "setting": "[9]; rate 0.0625 kg/ha", "value": 9.0}, {"measurement": "herbicidal rating IPOHE", "setting": "[9]; rate 0.1250 kg/ha", "value": 9.0}, {"measurement": "Preemergence herbicidal rating GALAP", "setting": "[10]; rate 0.0625 kg/ha", "value": 0.0}, {"measurement": "Preemergence herbicidal rating GALAP", "setting": "[10]; rate 0.1250 kg/ha", "value": 0.0}, {"measurement": "Preemergence herbicidal rating GALAP", "setting": "[10]; rate 0.2500 kg/ha", "value": 9.0}, {"measurement": "Preemergence herbicidal rating GALAP", "setting": "[10]; rate 0.5000 kg/ha", "value": 9.0}, {"measurement": "Preemergence herbicidal rating ZEAMX", "setting": "[11]; rate 0.0625 kg/ha", "value": 0.0}, {"measurement": "Preemergence herbicidal rating ZEAMX", "setting": "[11]; rate 0.1250 kg/ha", "value": 2.0}, {"measurement": "Preemergence herbicidal rating ZEAMX", "setting": "[11]; rate 0.2500 kg/ha", "value": 4.0}, {"measurement": "Preemergence herbicidal rating ZEAMX", "setting": "[11]; rate 0.5000 kg/ha", "value": 8.0}, {"measurement": "Preemergence herbicidal rating CHEAL", "setting": "[12]; rate 0.0625 kg/ha", "value": 9.0}, {"measurement": "Preemergence herbicidal rating CHEAL", "setting": "[12]; rate 0.1250 kg/ha", "value": 9.0}, {"measurement": "Preemergence herbicidal rating CHEAL", "setting": "[12]; rate 0.2500 kg/ha", "value": 9.0}, {"measurement": "Preemergence herbicidal rating CHEAL", "setting": "[12]; rate 0.5000 kg/ha", "value": 9.0}, {"measurement": "Preemergence herbicidal rating CASOB", "setting": "[13]; rate 0.0625 kg/ha", "value": 0.0}, {"measurement": "Preemergence herbicidal rating CASOB", "setting": "[13]; rate 0.1250 kg/ha", "value": 0.0}, {"measurement": "Preemergence herbicidal rating CASOB", "setting": "[13]; rate 0.2500 kg/ha", "value": 0.0}, {"measurement": "Preemergence herbicidal rating CASOB", "setting": "[13]; rate 0.5000 kg/ha", "value": 3.0}]}]}
